Measured values as given in patent publication US5583101A, “Use of nitrogen oxide species and adducts to inhibit skeletal muscle contraction” (Harvard College, priority 1994, dated 1996).

How the values were obtained:
[1] = test system: rat diaphragm fiber bundles; assay: Force developed at 40 Hz (submaximal tetanic contraction) by diaphragm fiber bundles; type: cell-based
Procedure: FIGS. 3A and 3B. […] Direct field stimulation (0.2 ms pulses, 250 ms train duration, supramaximal voltage) was used to evoke twitch (1 Hz) and tetanic (15, 30, 40, 50, 80, 120, 200 Hz) contractions. Isometric force was measured. Upper panel (A) depicts the average forces (+/-SE) developed at frequencies of 1-200 Hz. […] A vertical dotted line identifies the frequency (40 Hz) used in comparisons of NOS activity.
FIGS. 4A and 4B. […] Fiber bundles were isolated from rat diaphragm and studied using methods described in FIG. 3. Panel A depicts the average forces (+SE) developed at stimulus frequencies of 1-120 Hz by muscles incubated in Krebs-Ringer solution containing either 7-nitroindazole (NIZ; n=3 per frequency) or aminoguanidine (AMG, n=3 per frequency). Forces are expressed as percentages of maximal tetanic force (PO).
Fiber bundles were isolated from rat diaphragm and studied using methods described in the description of FIG. 3. Data are mean forces (±SE) developed at 40 Hz by fiber bundles (n=5 or 6/group) treated with NLA (transcribed from FIG. 4B), NLA plus dipyramidole (DPM; phosphodiesterase inhibitor) 10 uM, 8-bromo-cGMP (BGMP; exogenous CGMP analogue), or DPM plus BGMP. Forces are expressed as percentages of the average force developed at 40 Hz by time- and stimulus-matched control muscle (shown±SE by horizontal dashed lines).

other NOS isoforms = details: Misko et al. 1993; cited from earlier work
[2] = test system: rat diaphragm fiber bundles; assay: Force-frequency relationship (isometric force) of isolated diaphragm fiber bundles; type: cell-based; details: for contractile increases (force-frequency relationship): same dose range as NIZ (100 uM-1 mM)
Procedure: FIGS. 3A and 3B. Skeletal muscle contractile properties are related to NOS activity Muscles (Soleus, n=6; DPH, diaphragm fiber bundles, n=7; EDL, extensor digitorum longus, n=5) were surgically isolated from deeply anesthetized rats, mounted in vitro at optimal length, and incubated at 37° C. in oxygenated buffered Krebs-Ringer solution containing d-tubocurarine 25 uM. Direct field stimulation (0.2 ms pulses, 250 ms train duration, supramaximal voltage) was used to evoke twitch (1 Hz) and tetanic (15, 30, 40, 50, 80, 120, 200 Hz) contractions. Isometric force was measured. Upper panel (A) depicts the average forces (+/-SE) developed at frequencies of 1-200 Hz. Tetanic stimulation at any submaximal frequency (15-150 Hz) evoked different amounts of force production among the muscles (Soleus>DPH>EDL). A vertical dotted line identifies the frequency (40 Hz) used in comparisons of NOS activity.
FIGS. 4A and 4B. Endogenous NO depresses contractile function. Fiber bundles were isolated from rat diaphragm and studied using methods described in FIG. 3. Panel A depicts the average forces (+SE) developed at stimulus frequencies of 1-120 Hz by muscles incubated in Krebs-Ringer solution containing either 7-nitroindazole (NIZ; n=3 per frequency) or aminoguanidine (AMG, n=3 per frequency). Forces are expressed as percentages of maximal tetanic force (PO).

b-NOS = details: Moore et al.; cited from earlier work

In the case of CC(=O)N[C@@H](CSN=O)C(=O)O [SNAC, S-nitroso-N-acetylcysteine], the “contractile function with exogenous NO donor” value ([1]; 100 uM, FIG. 4B) is reported as “depressing contractile function” and the “force developed at 40 Hz, compared with control” value ([1]; 40 Hz, SNAC 100 uM, NP 100 uM, NLA 10 mM, FIG. 4B) is reported as “not different from control”.
For Hemoglobin, the “force production during submaximal tetanic contraction” value ([1]; 40 Hz, 50 uM, n=5, p=0.052) was “enhances force production” and the “force production during submaximal tetanic contraction” value ([1]; 40 Hz, 50-250 uM, n=10, p<0.001) was “enhances force production”.
For CN(C)c1ccc2nc3ccc(=[N+](C)C)cc-3sc2c1 [methylene blue], the “force production during submaximal tetanic contraction” value ([1]; 10 uM, p<0.001, data not shown) was “increased force production”.
For N=C(N)NN [AMG, aminoguanidine], the NOS isoform selectivity (other NOS isoforms) is given as “relative selectivity towards other NOS isoforms” and the “contractile increases (force-frequency relationship)” value [2] is given as “Similar, albeit smaller, contractile increases”.
With O=[N+]([O-])c1cccc2cn[nH]c12 [NIZ, 7-nitroindazole] the “effect on contractile function (force-frequency relationship)” value ([2]; 100 uM, p<0.05) was “Significant effects”, the “effect on contractile function (force-frequency curve)” value ([2]; 1 mM, FIG. 4A) was “profoundly influenced contractile function, causing the diaphragm force-frequency curve to closely approximate that of the soleus” and the “shift of the diaphragm force-frequency relationship” value ([2]; 1 mM, FIG. 4A, repeated measures ANOVA) was “shifted the diaphragm force-frequency relationship up and to the left (p<0.0001 by repeated measures ANOVA) such that it was indistinguishable from the relationship measured in untreated soleus”. For the same molecule, the NOS isoform specificity (b-NOS) was “b-NOS specific inhibitor”.
With N=C(N)NCCC[C@H](N)C(=O)O [L-arginine] the “contractile increases (force-frequency relationship)” value [2] was “not”.
With Nc1nc2c(nc(Br)n2[C@@H]2O[C@@H]3COP(=O)(O)O[C@H]3[C@H]2O)c(=O)[nH]1 [BGMP, 8-bromo-cGMP] the “effect on contractile increases caused by NOS inhibition” value ([1]; 40 Hz, FIG. 5) was “reversed” and the “force developed at 40 Hz, compared with control” value ([1]; NLA-treated bundles, DPM 10 uM, FIG. 5, p<0.0001) was “greater than control”.
With OCCN(CCO)c1nc(N2CCCCC2)c2nc(N(CCO)CCO)nc(N3CCCCC3)c2n1 [DPM, dipyridamole] the “effect on contractile increases caused by NOS inhibition” value ([1]; 40 Hz, FIG. 5) was “reversed”.
